Reference: US8946413B2 (Pfizer Inc., priority 2008, dated 2015)

What follows are molecules tested against T1, CCR2 (Homo sapiens, UniProt P41597) (assay: hCCR2 (125-I hMCP-1) small molecule binding assay on human PBMCs). Conditions: 125I-MCP-1, human PBMCs, 30 min preincubation; read-out: IC50 (nM) 30 min preinc.
T1 construct: (leukophoresis pack); host or cells: human peripheral blood mononuclear cells (PBMCs) from a normal human leukophoresis pack
In short: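 Ficoll-isolated human PBMCs pre-incubated 30 min or 1 h with compound at 0.333 μM final (0.67% DMSO), then incubated 30 min at room temperature with 150 pM 125I-hMCP-1 in RPMI/0.1% BSA/20 mM HEPES. Filter-bound radioactivity counted by gamma counter. 100% inhibition defined with 1 μM hMCP-1; IC50 plates run n=2.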

T1 sequence (P41597 whole entry): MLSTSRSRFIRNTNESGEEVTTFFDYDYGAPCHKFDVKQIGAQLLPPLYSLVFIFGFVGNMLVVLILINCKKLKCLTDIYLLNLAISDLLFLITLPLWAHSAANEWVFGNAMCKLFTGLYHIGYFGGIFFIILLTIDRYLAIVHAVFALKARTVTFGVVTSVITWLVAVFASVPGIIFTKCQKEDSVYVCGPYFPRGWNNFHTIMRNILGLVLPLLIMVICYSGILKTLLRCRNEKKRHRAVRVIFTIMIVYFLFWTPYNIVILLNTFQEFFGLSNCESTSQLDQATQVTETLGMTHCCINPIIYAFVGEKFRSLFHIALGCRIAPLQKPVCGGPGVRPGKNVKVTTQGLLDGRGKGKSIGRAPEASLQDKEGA

| Compound | IC50 [nM] |
| --- | --- |
| CO[C@@H]1COCC[C@@H]1N[C@@H]1CC[C@@](C(=O)N2C[C@@H]3C[C@H]2CN3c2ccnc(C(F)(F)F)n2)(C2(O)CCC2)C1 [Example 48, 1,5-anhydro-2,3-dideoxy-3-{[(1R,3S)-3-(1-hydroxycyclobutyl)-3-({(1S,4S)-5-[2-(trifluoromethyl)pyrimidin-4-yl]-2,5-diazabicyclo[2.2.1]hept-2-yl}carbonyl)cyclopentyl]amino}-4-O-methyl-D-erythro-pentitol] | 25.3 |
| CO[C@@H]1COCC[C@@H]1N[C@@H]1CC[C@@](C(=O)N2C[C@@H]3C[C@H]2CN3c2cc(C(F)(F)F)ncn2)(C2(O)CCC2)C1 [Example 49, 1,5-anhydro-2,3-dideoxy-3-{[(1R,3S)-3-(1-hydroxycyclobutyl)-3-({(1S,4S)-5-[6-(trifluoromethyl)pyrimidin-4-yl]-2,5-diazabicyclo[2.2.1]hept-2-yl}carbonyl)cyclopentyl]amino}-4-O-methyl-D-erythro-pentitol] | 35.8 |
| CO[C@@H]1COCC[C@@H]1N[C@@H]1CC[C@@](C(=O)N2C[C@@H]3C[C@H]2CN3c2cncc(C(F)(F)F)n2)(C2(O)CCC2)C1 [Example 50, 1,5-anhydro-2,3-dideoxy-3-{[(1R,3S)-3-(1-hydroxycyclobutyl)-3-({(1S,4S)-5-[6-(trifluoromethyl)pyrazin-2-yl]-2,5-diazabicyclo[2.2.1]hept-2-yl}carbonyl)cyclopentyl]amino}-4-O-methyl-D-erythro-pentitol] | 7.14 |
| CO[C@@H]1COCC[C@@H]1N[C@@H]1CC[C@@](C(=O)N2C[C@@H]3C[C@H]2CN3c2ccnc(C(F)(F)F)c2)(C2(O)CCC2)C1 [Example 51, 1,5-anhydro-2,3-dideoxy-3-{[(1R,3S)-3-(1-hydroxycyclobutyl)-3-({(1S,4S)-5-[2-(trifluoromethyl)pyridin-4-yl]-2,5-diazabicyclo[2.2.1]hept-2-yl}carbonyl)cyclopentyl]amino}-4-O-methyl-D-erythro-pentitol] | 22.8 |
| CO[C@@H]1COCC[C@@H]1N[C@@H]1CC[C@@](C(=O)N2C[C@@H]3C[C@H]2CN3c2cc(C(F)(F)F)ccn2)(C(C)(C)O)C1 [Example 52, 1,5-anhydro-2,3-dideoxy-3-{[3-(1-hydroxy-1-methylethyl)-3-({5-[4-(trifluoromethyl)pyridin-2-yl]-2,5-diazabicyclo[2.2.1]hept-2-yl}carbonyl)cyclopentyl]amino}-4-O-methylpentitol] | 5.4 |
| CO[C@@H]1COCC[C@@H]1N[C@@H]1CC[C@@](C(=O)N2C[C@@H]3C[C@H]2CN3c2cc(C(F)(F)F)ncn2)(C(C)(C)O)C1 [Example 53, 1,5-anhydro-2,3-dideoxy-3-{[3-(1-hydroxy-1-methylethyl)-3-({5-[6-(trifluoromethyl)pyrimidin-4-yl]-2,5-diazabicyclo[2.2.1]hept-2-yl}carbonyl)cyclopentyl]amino}-4-O-methylpentitol] | 27.6 |
| CO[C@@H]1COCC[C@@H]1N[C@@H]1CC[C@@](C(=O)N2C[C@@H]3C[C@H]2CN3c2nccc(C(F)(F)F)n2)(C(C)(C)O)C1 [Example 54] | 8.46 |
| CO[C@@H]1COCC[C@@H]1N[C@@H]1CC[C@@](C(=O)N2C[C@@H]3C[C@H]2CN3c2cc(C(F)(F)F)cnn2)(C(C)(C)O)C1 [Example 55, 1,5-anhydro-2,3-dideoxy-3-{[3-(1-hydroxy-1-methylethyl)-3-({5-[5-(trifluoromethyl)pyridazin-3-yl]-2,5-diazabicyclo[2.2.1]hept-2-yl}carbonyl)cyclopentyl]amino}-4-O-methylpentitol] | 28.3 |
| CO[C@@H]1COCC[C@@H]1N[C@@H]1CC[C@@](C(=O)N2C[C@@H]3C[C@H]2CN3c2ccnc(C(F)(F)F)n2)(C(C)(C)O)C1 [Example 56, 1,5-anhydro-2,3-dideoxy-3-{[3-(1-hydroxy-1-methylethyl)-3-({5-[2-(trifluoromethyl)pyrimidin-4-yl]-2,5-diazabicyclo[2.2.1]hept-2-yl}carbonyl)cyclopentyl]amino}-4-O-methylpentitol] | 32.8 |
| CO[C@@H]1COCC[C@@H]1N[C@@H]1CC[C@@](C(=O)N2C[C@@H]3C[C@H]2CN3c2cccc(C(F)(F)F)n2)(C(C)(C)O)C1 [Example 57, 1,5-anhydro-2,3-dideoxy-3-{[3-(1-hydroxy-1-methylethyl)-3-({5-[6-(trifluoromethyl)pyridin-2-yl]-2,5-diazabicyclo[2.2.1]hept-2-yl}carbonyl)cyclopentyl]amino}-4-O-methylpentitol] | 4.34 |
| CO[C@@H]1COCC[C@@H]1N[C@@H]1CC[C@@](C(=O)N2C[C@@H]3C[C@H]2CN3c2ccnc(C(F)(F)F)c2)(C(C)(C)O)C1 [Example 58, 1,5-anhydro-2,3-dideoxy-3-{[3-(1-hydroxy-1-methylethyl)-3-({5-[2-(trifluoromethyl)pyridin-4-yl]-2,5-diazabicyclo[2.2.1]hept-2-yl}carbonyl)cyclopentyl]amino}-4-O-methylpentitol] | 38.5 |
| CO[C@@H]1COCC[C@@H]1N[C@@H]1CC[C@@](C(=O)N2C[C@@H]3C[C@H]2CN3c2cncc(C(F)(F)F)n2)(C(C)(C)O)C1 [Example 59, 1,5-anhydro-2,3-dideoxy-3-{[3-(1-hydroxy-1-methylethyl)-3-({5-[6-(trifluoromethyl)pyrazin-2-yl]-2,5-diazabicyclo[2.2.1]hept-2-yl}carbonyl)cyclopentyl]amino}-4-O-methylpentitol] | 17.7 |
| CO[C@@H]1COCC[C@@H]1N[C@@H]1CC[C@@](C(=O)N2C[C@@H]3C[C@H]2CN3c2cc(C(F)(F)F)ccn2)(C2CCOC2)C1 (stereo partly drawn) [Example 60, ((1S,3R)-3-((3S,4S)-3-methoxy-tetrahydro-2H-pyran-4-ylamino)-1-(tetrahydrofuran-3-yl)cyclopentyl)((1S,4S)-5-(4-(trifluoromethyl)pyridin-2-yl)-2,5-diaza-bicyclo[2.2.1]heptan-2-yl)methanone] | 2.4 |
| CO[C@@H]1COCC[C@@H]1N[C@@H]1CC[C@@](C(=O)N2C[C@@H]3C[C@H]2CN3c2cc(C(F)(F)F)ccn2)(C2CCOC2)C1 (stereo partly drawn) [Example 61, ((1S,3R)-3-((3S,4S)-3-methoxy-tetrahydro-2H-pyran-4-ylamino)-1-(tetrahydrofuran-3-yl)cyclopentyl)((1S,4S)-5-(4-(trifluoromethyl)pyridin-2-yl)-2,5-diaza-bicyclo[2.2.1]heptan-2-yl)methanone] | 5.9 |
| CO[C@@H]1COCC[C@@H]1N[C@@H]1CC[C@@](C(=O)N2C[C@@H]3C[C@H]2CN3c2cc(C(F)(F)F)ccn2)(C(O)C(F)(F)F)C1 (stereo partly drawn) [Example 62, ((1S,3R)-3-((3S,4S)-3-methoxy-tetrahydro-2H-pyran-4-ylamino)-1-(2,2,2-trifluoro-1-hydroxyethyl)cyclopentyl)((1S,4S)-5-(4-(trifluoromethyl)pyridin-2-yl)-2,5-diaza-bicyclo[2.2.1]heptan-2-yl)methanone] | 1.3 |

Same assay, conditions: 125I-MCP-1, human PBMCs, 1 hr preincubation; read-out: IC50 (nM) 1 hr preinc

| Compound | IC50 [nM] |
| --- | --- |
| CO[C@@H]1COCC[C@@H]1N[C@@H]1CC[C@@](C(=O)N2C[C@@H]3C[C@H]2CN3c2cc(C(F)(F)F)ccn2)(C(O)C(F)(F)F)C1 (stereo partly drawn) [Example 63, ((1S,3R)-3-((3S,4S)-3-methoxy-tetrahydro-2H-pyran-4-ylamino)-1-(2,2,2-trifluoro-1-hydroxyethyl)cyclopentyl)((1S,4S)-5-(4-(trifluoromethyl)pyridin-2-yl)-2,5-diaza-bicyclo[2.2.1]heptan-2-yl)methanone] | 1.1 |
